From PubChem BioAssay (NCI)
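Exposure lasted 48 hours, with cells grown in 96-well plates and compounds tested at five concentrations. Here, GI50 denotes the concentration required for 50% inhibition of growth. TGI denotes the concentration required for complete inhibition of growth.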

How the values were obtained:
Assay in all cases: NCI anticancer screen, dose series, 48 h
[1] = test system: 786-0 renal
[2] = test system: A498 renal
[3] = test system: A549 NSCLC
[4] = test system: ACHN renal
[5] = test system: BT-549 breast
[6] = test system: CAKI-1 renal
[7] = test system: CCRF-CEM leukemia
[8] = test system: COLO 205 colon
[9] = test system: DU-145 prostate
[10] = test system: EKVX NSCLC
[11] = test system: HCC-2998 colon
[12] = test system: HCT-116 colon
[13] = test system: HCT-15 colon
[14] = test system: HL-60(TB) leukemia
[15] = test system: HOP-62 NSCLC
[16] = test system: HOP-92 NSCLC
[17] = test system: HS 578T breast
[18] = test system: HT29 colon
[19] = test system: K-562 leukemia
[20] = test system: KM12 colon
[21] = test system: LOX IMVI melanoma
[22] = test system: M14 melanoma
[23] = test system: MALME-3M melanoma
[24] = test system: MCF7 breast
[25] = test system: MDA-MB-231 breast
[26] = test system: MDA-MB-435
[27] = test system: MOLT-4 leukemia
[28] = test system: NCI-H226 lung
[29] = test system: NCI-H23 lung
[30] = test system: NCI-H460 lung
[31] = test system: NCI-H522 lung
[32] = test system: NCI/ADR-RES ovarian
[33] = test system: OVCAR-3 ovarian
[34] = test system: OVCAR-4 ovarian
[35] = test system: OVCAR-5 ovarian
[36] = test system: OVCAR-8 ovarian
[37] = test system: PC-3 prostate
[38] = test system: RPMI-8226 leukemia
[39] = test system: RXF 393 renal
[40] = test system: SF-268 CNS
[41] = test system: SF-295 CNS
[42] = test system: SF-539 CNS
[43] = test system: SK-MEL-2 melanoma
[44] = test system: SK-MEL-28 melanoma
[45] = test system: SK-MEL-5 melanoma
[46] = test system: SK-OV-3 ovarian
[47] = test system: SN12C renal
[48] = test system: SNB-19 CNS
[49] = test system: SNB-75 CNS
[50] = test system: SR leukemia
[51] = test system: SW-620 colon
[52] = test system: T-47D breast
[53] = test system: TK-10 renal
[54] = test system: U251 CNS
[55] = test system: UACC-257 melanoma
[56] = test system: UACC-62 melanoma
[57] = test system: UO-31 renal

With COc1cc2c3c(n(CCCBr)c(=O)c2cc1OC)-c1ccc(F)cc1C3=O the GI50 [1] was 4.73 µM, the TGI [1] was 17.9 µM and the GI50 [2] was 14.8 µM. It also gave a TGI [2] of 40.9 µM, a GI50 [3] of 36.8 µM and a TGI [3] of over 100 µM. For the same compound, the GI50 [4] was 4.47 µM, the TGI [4] was 36.3 µM and the GI50 [5] was 13.9 µM. It also gave a TGI [5] of 49.7 µM, a GI50 [6] of 7.9 µM and a TGI [6] of 33.7 µM. It also gave a GI50 [7] of 1.99 µM, a TGI [7] of 8.94 µM and a GI50 [8] of 33.4 µM. It also gave a TGI [8] of over 100 µM, a GI50 [9] of 4.33 µM and a TGI [9] of 20.6 µM. The GI50 [10] was 49.5 µM, the TGI [10] was over 100 µM and the GI50 [11] was 13.7 µM. It also gave a TGI [11] of over 100 µM, a GI50 [12] of 5.72 µM and a TGI [12] of 30.6 µM. For the same compound, the GI50 [13] was 48.7 µM, the TGI [13] was over 100 µM and the GI50 [14] was 24.8 µM. The TGI [14] was over 100 µM, the GI50 [15] was 4.21 µM and the TGI [15] was 25 µM. For the same compound, the GI50 [16] was 4.07 µM, the TGI [16] was 28.4 µM and the GI50 [17] was 32 µM. For the same compound, the TGI [17] was over 100 µM, the GI50 [18] was 16.9 µM and the TGI [18] was over 100 µM. It also gave a GI50 [19] of 16.3 µM, a TGI [19] of over 100 µM and a GI50 [20] of 35.3 µM. It also gave a TGI [20] of over 100 µM, a GI50 [21] of 5.48 µM and a TGI [21] of 30.1 µM. The GI50 [22] was 8.92 µM, the TGI [22] was over 100 µM and the GI50 [23] was 43 µM. The TGI [23] was over 100 µM, the GI50 [24] was 4.1 µM and the TGI [24] was over 100 µM. It also gave a GI50 [25] of 66.3 µM, a TGI [25] of over 100 µM and a GI50 [26] of 43.9 µM. The TGI [26] was over 100 µM, the GI50 [27] was 2.89 µM and the TGI [27] was 10.6 µM. The GI50 [28] was 28 µM, the TGI [28] was over 100 µM and the GI50 [29] was 17.8 µM. The TGI [29] was 76.4 µM, the GI50 [30] was 2.38 µM and the TGI [30] was 47.2 µM. It also gave a GI50 [31] of 4.9 µM, a TGI [31] of 36.3 µM and a GI50 [32] of 13.3 µM. The TGI [32] was over 100 µM, the GI50 [33] was 24.6 µM and the TGI [33] was 99.6 µM. It also gave a GI50 [34] of 40 µM, a TGI [34] of over 100 µM and a GI50 [35] of 50 µM. The TGI [35] was over 100 µM, the GI50 [36] was 26.4 µM and the TGI [36] was over 100 µM. It also gave a GI50 [37] of 45.8 µM, a TGI [37] of over 100 µM and a GI50 [38] of 12.6 µM. The TGI [38] was 38.1 µM, the GI50 [39] was 34.4 µM and the TGI [39] was over 100 µM. The GI50 [40] was 10.4 µM, the TGI [40] was over 100 µM and the GI50 [41] was 1.69 µM. The TGI [41] was 9.23 µM, the GI50 [42] was 3.54 µM and the TGI [42] was 15.2 µM. It also gave a GI50 [43] of 23 µM, a TGI [43] of 80.6 µM and a GI50 [44] of 39.8 µM. The TGI [44] was over 100 µM, the GI50 [45] was 10.9 µM and the TGI [45] was 24.1 µM. It also gave a GI50 [46] of 15.8 µM, a TGI [46] of 59 µM and a GI50 [47] of 15.6 µM. The TGI [47] was over 100 µM, the GI50 [48] was 6.34 µM and the TGI [48] was over 100 µM. For the same compound, the GI50 [49] was 12.9 µM, the TGI [49] was 28.2 µM and the GI50 [50] was 0.28 µM. The TGI [50] was 1.73 µM, the GI50 [51] was 7.02 µM and the TGI [51] was over 100 µM. For the same compound, the GI50 [52] was 4.86 µM, the TGI [52] was 62 µM and the GI50 [53] was 32.7 µM. For the same compound, the TGI [53] was over 100 µM, the GI50 [54] was 3.74 µM and the TGI [54] was 24.3 µM. It also gave a GI50 [55] of 76.4 µM, a TGI [55] of over 100 µM and a GI50 [56] of 3.93 µM. For the same compound, the TGI [56] was 24.5 µM, the GI50 [57] was 5.57 µM and the TGI [57] was 60.4 µM.
